“Also recorded” adds a separate entry of the source.
Columns and labels:
TSP4 = biological target: T1, TSP4 (Rattus norvegicus, UniProt P49744); experiment: Reversal of established tactile allodynia in L5/6 spinal nerve ligated rats (von Frey PWT); type: in vivo; settings: 50 ug/day intrathecal for four days; for reversal of established allodynia in the injury (ipsilateral) side: 5 weeks post injury
T1 construct: elevated TSP4 protein may play a critical role in peripheral nerve injury-induced allodynia at the spinal level; from tissue; host or cells: spinal cord (L5/6) of live male Sprague Dawley rats, intrathecal injection
Method: To determine if TSP4 plays a role in mediating neuropathic pain processing at the spinal cord level, the effect of intrathecal TSP4 antisera in reversing established allodynia in spinal nerve ligated rats was examined. Intrathecal bolus injection of active TSP4 antibody (chicken polyclonal, from Dr. Frank Zaucke at University of Cologne, Cologne, Germany) was administered into left L5/6 spinal nerve ligated rats 2-weeks post injury, when the injured rats had fully developed allodynia. […] Neither the antisense nor mismatch oligodeoxynucleotides altered the behavioral thresholds at the non-injury side. […] Male Harlan Sprague Dawley rats (100-150 g, Harlan Industries Indianapolis, Ind.) were housed in separate cages, exposed to a 12/12 h day/night cycle and allowed free access to food and water. Peripheral nerve injury was induced in isoflurane-anesthetized animals with tight ligation of the left L5/6 spinal nerves between DRG and the beginning of the spinal nerve (Kim and Chung, Pain 50 50:355-363, 1992). To access tactile allodynia, paw withdrawal threshold (PWT) was determined using the up-down method of Dixon (Dixon, Ann. Rev. Pharma. & Toxico. 20:441-462, 1980) with von Frey filaments (Stoelting, Wood Dale, Ill., USA) as described previously (Chaplan et al., J. Neuros. Methods 53:55-63, 1994). Briefly, animals were allowed to acclimate for 30 min in a clear plastic cubicle with a wire-mesh base. A 2 g calibrated filament was first applied to the left hindpaw plantar surface with a pressure causing the filament to bend. If no paw lifting was detected after 5 s the next filament with increasing weight was used. If a paw lifting was observed, the next weaker filament was used. […] Neurosci. 21:1868-75, 2001). […] Rn014934317, Applied Biosystems), and is specific to the TSP 4 mRNA. Mismatch oligodeoxynucleotides, which contain the same number of nucleotides but in a random order (not complementary to any particular region of TSP4 mRNA), were used as controls. […] Genbank accession #: X89963) Oligodeoxynucleotides: These antisense and mismatch sequences were not complementary to any sequences of other rat genes as indicated by BLAST search results in rat genome database. It had been shown that oligodeoxynucleotides with phosphorothioate modification have increased potential for crossing lipid bilayers, and reduce nuclease cleavage (Crooke, et al., Ann. Rev. Pharmacology. & Toxicology, 1996).

RGCs [1] = experiment: Inhibition of TSP-, astrocyte/ACM- or Hevin-induced synapse formation in RGC cultures; type: cell-based, rat
Method: (§1) RGCs were purified by sequential immunopanning to greater than 99.5% purity from P5 Sprague-Dawley rats (Simonsen Labs, Gilroy, Calif.), as previously described (Barres et. al. (1988) Neuron 9, 791). Approximately 30,000 RGCs were cultured per well in 24-well plates (Falcon) on glass (Assistant) or Aclar 22C (Allied Signal) coverslips coated with poly-D-lysine (10 μg/ml) followed by laminin (2 μg/ml). RGCs were cultured in 600 μl of serum-free medium, modified from Bottenstein and Sato (1979), containing Neurobasal (Gibco), bovine serum albumin, selenium, putrescine, triiodo-thyronine, transferrin, progesterone, pyruvate (1 mM), glutamine (2 mM), CNTF (10 ng/ml), BDNF (50 ng/ml), insulin (5 μg/ml), and forskolin (10 μM). Recombinant human BDNF and CNTF were generously provided by Regeneron Pharmaceuticals.
(§2) Purified human platelet TSP1 was from either Sigma or Haematologic Technologies with similar results. Recombinant TSP2 was purified from serum-free medium conditioned by baculovirus-infected insect cells expressing mouse TSP2. Since purified TSP1 is readily available, we used this as the source of TSP in our experiments unless otherwise stated TSPs were used at a concentration of 5 μg/ml unless otherwise specified. RCGs were cultured for 4 days to allow robust process outgrowth and then cultured with TSPs for an additional 6 days. All other reagents were obtained from Sigma.
(§3) For preparation of ACM, confluent cultures of astrocytes in 10 cm dishes were washed 3× in PBS and fed with 10 mls RGC medium (without CNTF, BDNF or forskolin). ACM was harvested after 4-6 days of conditioning, filtered through a 0.2 μm syringe filter and concentrated 10× through a 5 KD molecular weight cut-off centrifuge concentrator (Millipore), unless otherwise indicated. ACM was used at a final concentration of 5× unless otherwise indicated. RCGs were cultured for 4 days to allow robust process outgrowth and then cultured with ACM or an astrocyte-feeding layer for an additional 6 days.
For synapse quantification, cultures were fixed for 7 min in 4% paraformaldehyde (PFA), washed 3× in phosphate buffered saline (PBS) and blocked in 100 μL of blocking buffer (50% Antibody Buffer (0.5% bovine serum albumin, 0.5% Triton X-100, 30 mM NaPO4, 750 mM NaCl, 5% normal goat serum, and 0.4% NaN3, pH 7.4), 50% goat serum (NGS), 0.1% Triton-X) for 30 min. After blocking, cover slips were washed 3× in PBS and 100 μL of primary antibody solution was added to each cover slip, consisting of rabbit anti-synaptotagmin (cytosolic domain, Synaptic Systems) and mouse anti-PSD-95 (6G6-1C9 clone, Affinity Bio Reagents) diluted 1:500 in antibody buffer. Coverslips were incubated overnight at 4° C., washed 3× in PBS, and incubated with 100 μL of secondary antibody solution containing Alexa-594 conjugated goat anti-rabbit and Alexa-488 conjugated goat anti-mouse (Molecular Probes) diluted 1:1000 in antibody buffer. Following incubation for 2 h at room temperature, coverslips were washed five times in PBS and mounted in Vectashield mounting medium with DAPI (Vector Laboratories Inc) on glass slides (VWR Scientific). For presynaptic activity assay, rabbit synaptotagmin antiserum was generated by immunization with a peptide corresponding to the N-terminal luminal portion of synaptotagmin. This serum was added at 1:500 to live cultures and incubated for 6 hours. Cells were then washed 3× in DPSB, fixed and stained as above, except for the omission of synaptotagmin antibody from the primary antibody solution.
(§4) Mounted coverslips were imaged using Nikon Diaphot and Eclipse epifluorescence microscopes (Nikon). Healthy cells that were at least 2 cell diameters from their nearest neighbor were identified and selected at random by eye using DAPI fluorescence. 8-bit digital images of the fluorescence emission at both 594 nm and 488 nm were recorded for each selected cell using a cooled monochrome CCD camera and SPOT image capture software (Diagnostic Instruments, Inc). […]

RGCs [2] = experiment: RGC synapse assay: synaptogenic activity (co-localized synaptotagmin/PSD-95 puncta); type: cell-based, rat; settings: for number of co-localized synaptic puncta/cell (synapse number): purified TSPs, 8 nM each, vs RGCs alone (Control)
Method: as §1, §2
as §3, with “RCGs were cultured for 4 days to allow robust process outgrowth and then cultured with ACM or an astrocyte-feeding layer for an additional 6 days.” left out
For synapse quantification, cultures were fixed for 7 min in 4% paraformaldehyde (PFA), washed 3× in phosphate buffered saline (PBS) and blocked in 100 μL of blocking buffer (50% Antibody Buffer (0.5% bovine serum albumin, 0.5% Triton X-100, 30 mM NaPO4, 750 mM NaCl, 5% normal goat serum, and 0.4% NaN3, pH 7.4), 50% goat serum (NGS), 0.1% Triton-X) for 30 min. […]
as §4

naive rats = experiment: TSP4-induced behavioral hypersensitivity in naive rats (paw withdrawal threshold, von Frey); type: in vivo, rat

T1 sequence (P49744 43-980): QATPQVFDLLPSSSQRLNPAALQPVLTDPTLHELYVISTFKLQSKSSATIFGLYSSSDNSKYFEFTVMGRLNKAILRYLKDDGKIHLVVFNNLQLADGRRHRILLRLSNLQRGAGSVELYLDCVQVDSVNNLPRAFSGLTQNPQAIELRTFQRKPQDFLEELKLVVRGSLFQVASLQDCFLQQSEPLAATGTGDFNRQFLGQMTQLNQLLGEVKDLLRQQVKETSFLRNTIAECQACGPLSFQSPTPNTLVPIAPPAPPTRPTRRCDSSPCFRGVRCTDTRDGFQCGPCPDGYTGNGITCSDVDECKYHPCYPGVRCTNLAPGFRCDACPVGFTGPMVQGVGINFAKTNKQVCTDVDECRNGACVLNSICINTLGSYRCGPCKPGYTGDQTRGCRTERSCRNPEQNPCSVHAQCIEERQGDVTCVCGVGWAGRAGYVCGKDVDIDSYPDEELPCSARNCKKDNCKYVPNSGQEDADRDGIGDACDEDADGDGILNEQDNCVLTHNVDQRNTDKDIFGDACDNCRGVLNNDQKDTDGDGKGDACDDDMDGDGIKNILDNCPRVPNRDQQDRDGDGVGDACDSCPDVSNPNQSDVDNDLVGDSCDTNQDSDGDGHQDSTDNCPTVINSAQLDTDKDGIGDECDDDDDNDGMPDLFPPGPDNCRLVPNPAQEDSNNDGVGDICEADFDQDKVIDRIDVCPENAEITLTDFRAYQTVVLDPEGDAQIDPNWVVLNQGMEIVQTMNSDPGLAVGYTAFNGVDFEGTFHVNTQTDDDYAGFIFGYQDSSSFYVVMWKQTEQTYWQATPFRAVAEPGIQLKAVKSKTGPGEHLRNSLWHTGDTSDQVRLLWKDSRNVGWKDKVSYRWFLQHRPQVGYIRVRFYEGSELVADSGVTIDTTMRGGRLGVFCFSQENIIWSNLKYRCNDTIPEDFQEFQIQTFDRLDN

In the case of “5′ CCATCATTGTTGCTATCTTCC 3′ (DNA, backbone and methylation of C not given here; further chemistry not fully specified) [Antisense #2]”, the “duration of antisense effects after the last injection” value (TSP4) is reported as 3 days, the “onset time of antisense effects” value (TSP4) is reported as 3 days and the “time of peak antisense effect” value (TSP4) is reported as “one day after the 4-day treatment”. For the same molecule, the “reversal of established allodynia in the injury (ipsilateral) side” value (“reversal of established allodynia” for short) (TSP4) was “caused a complete reversal of established allodynia” and the “reversal of established allodynia” value (TSP4; listed as TSP4 antisense oligonucleotide #2) was “caused a complete reversal of established allodynia in the injury side”.

With “5′ GGCGTAATCATGGTCATACG 3′ (DNA, backbone and methylation of C not given here; further chemistry not fully specified) [Antisense #1]” the “reversal of established allodynia” value (TSP4) was “had some effects in allodynia reversal”.

With `NCCCC(=O)O` [GABA, γ-aminobutyric acid] the “effect on SD2/TSP-induced synapse formation” value (RGCs [1]; 1 mM (high concentrations)) was “blocked TSP induced synapse formation; also recorded: inhibitory” and the “effect on synapse numbers induced by SD2” value (RGCs [1]; 10 and 100 μM) was “did not decrease the synapse numbers”.

With “TSP1: purified human platelet TSP1, trimeric thrombospondin” the “number of co-localized synaptic puncta/cell (synapse number)” value (RGCs [2]) was “significantly increased the number of co-localized synaptic puncta/cell; also recorded: increased the number of synapses formed by RGCs significantly”.

“TSP3: mouse TSP3 overexpressed in Cos7 cells; conditioned media used as source” was tested, and the “number of co-localized synaptic puncta/cell” value (RGCs [2]; culture supernatant of Cos7 cells overexpressing TSP3, vs supernatant of empty-vector Cos7 cells) was “significantly increased the number of co-localized synaptic puncta/cell; also recorded: increased the number of synaptic puncta to the same extent as astrocytes”.

In the case of “TSP4: recombinant purified pentameric thrombospondin 4”, the “number of co-localized synaptic puncta/cell (synapse number)” value (RGCs [2]) is reported as “significantly increased the number of co-localized synaptic puncta/cell; also recorded: increased synaptic puncta numbers to the same extent as either astrocytes or TSP1”, the “duration of behavioral hypersensitivity” value (naive rats; intrathecal bolus) is reported as “over a week” and the “reversal time post the peak effect time” value (naive rats; intrathecal bolus) is reported as “about five days”. The “time of peak effect post injection” value (naive rats; intrathecal bolus) was 2 to 4 days and the “hindpaw withdrawal thresholds to von Frey filament stimulation” value (naive rats; intrathecal bolus injection of active protein into L5/6 spinal cord segments) was “caused a gradual reduction in their hindpaw withdrawal thresholds; also recorded: induced behavioral hypersensitivity in a dose-dependent and reversible manner”.

B1: Hevin: another astrocyte secreted synaptogenic protein (protein, UniProt Q14515 17-664, looked up)
SPARC-like protein 1: IPTNARLLSDHSKPTAETVAPDNTAIPSLRAEAEENEKETAVSTEDDSHHKAEKSSVLKSKEESHEQSAEQGKSSSQELGLKDQEDSDGHLSVNLEYAPTEGTLDIKEDMSEPQEKKLSENTDFLAPGVSSFTDSNQQESITKREENQEQPRNYSHHQLNRSSKHSQGLRDQGNQEQDPNISNGEEEEEKEPGEVGTHNDNQERKTELPREHANSKQEEDNTQSDDILEESDQPTQVSKMQEDEFDQGNQEQEDNSNAEMEEENASNVNKHIQETEWQSQEGKTGLEAISNHKETEEKTVSEALLMEPTDDGNTTPRNHGVDDDGDDDGDDGGTDGPRHSASDDYFIPSQAFLEAERAQSIAYHLKIEEQREKVHENENIGTTEPGEHQEAKKAENSSNEEETSSEGNMRVHAVDSCMSFQCKRGHICKADQQGKPHCVCQDPVTCPPTKPLDQVCGTDNQTYASSCHLFATKCRLEGTKKGHQLQLDYFGACKSIPTCTDFEVIQFPLRMRDWLKNILMQLYEANSEHAGYLNEKQRNKVKKIYLDEKRLLAGDHPIDLLLRDFKKNYHMYVYPVHWQFSELDQHPMDRVLTHSELAPLRASLVPMEHCITRFFEECDPNKDKHITLKEWGHCFGIKEEDIDENLLF
In the case of B1, the “number of synapses formed” value (RGCs [2]; 3 DIV RGCs treated 9 days, TSP2 EGF-like domains 20 nM, Hevin 30 nM, vs RGCs alone) is reported as “increased the number of synapses formed significantly”.

— patent publication US8491897B2, “Treatment of neuropathic pain using anti-thrombospondin antibodies” (The Board of Trustees of the Leland Stanford Junior …, priority 2007, dated 2013)
